Assay results as given in publication PMC10786919, “Design-rules for stapled peptides with in vivo activity and their application to Mdm2/X antagonists” (Nature Communications, 2024).
Values after ≈ are worked out from the molar mass of the structure shown. Read-outs that look alike come from different tables or passages of the source. Positions of bridges follow the written chain, without caps; N, C: chain ends. Non-standard residues stand in square brackets, D forms with d. Residues, ends and D or L forms follow the SMILES beside them. Lys(N3) = [N-]=[N+]=NCCCC[C@H](N)C(=O)O; R8 = C=CCCCCCC[C@@](C)(N)C(=O)O; Cba = N[C@@H](CC1CCC1)C(=O)O; S5 = C=CCCC[C@](C)(N)C(=O)O; βAla = NCCC(=O)O

Tests used:
in vitro = assay: in vitro
Method in brief: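 Azido-peptide permeability was read as loss of NanoBRET signal (donor 450 nm, acceptor 610 nm) after adding NanoBret618-azide at 10 μM final.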

[1] = Lactate dehydrogenase (LDH) release assay; format: cell-based
Method in brief: (§1)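 A p53 β-lactamase reporter HCT116 line, 8000 cells per well, is exposed to test compounds at 0.5% final DMSO and scored for LDH leakage.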

[2] = Solubility assay (kinetic solubility, PBS pH 7); format: physicochemical; conditions: for solubility kinetic: read-out: Solubility
Method in brief: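 Reference standards were made by diluting the 10 mM stock to 100 µM in acetonitrile:methanol:DMSO 10:80:10. Solubility in µM was calculated as the sample peak area divided by the standard peak area, multiplied by the standard concentration.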

[3] = Experimental LogD (partition coefficient); conditions: not stated, Partition Coeff LogD
HCT116 cells = assay: Lactate dehydrogenase (LDH) release assay; format: cell-based
Method in brief: as §1

[4] = Nanoclick permeability assay EC50
[5] = pH 7, aqueous buffer, kinetic from dmso stock, pH 7, PBS
[6] = 0% FBS 4Hr, read-out: LDH: Cytotoxicity assay EC50
[7] = 10% FBS 4Hr, read-out: LDH: Cytotoxicity assay EC50

| SMILES | EPSA (physchem) [A^2] | cell entry EC50 (in vitro; [4]) [µM] | EC50 ([1]; LDH: Cytotoxicity assay EC50) [µM] | solubility kinetic [2, 5] [µM] | logD [3] | LDH: Cytotoxicity assay % Effect (HCT116 cells) [%] | Solubility ([2]; pH 7, PBS) | LDH: Cytotoxicity assay % Effect (HCT116 cells; 0% FBS 4Hr) [%] | LDH: Cytotoxicity assay % Effect (HCT116 cells; 0% FBS 16Hr) [%] | EC50 [1, 6] [µM] | LDH: Cytotoxicity assay % Effect (HCT116 cells; 10% FBS 4Hr) [%] | EC50 [1, 7] [µM] | Solubility [2] | cell entry EC50 (in vitro) [µM] | solubility kinetic [2] [µM] |
| --- | --- | --- | --- | --- | --- | --- | --- | --- | --- | --- | --- | --- | --- | --- | --- |
| CC(=O)N[C@@H](CCCCN=[N+]=[N-])C(=O)NCCC(=O)N[C@@H](CC(C)C)C(=O)NC(C)(C)C(=O)N[C@@H](Cc1ccccc1)C(=O)N[C@]1(C)CCCCCCC=CCCC[C@@](C)(C(=O)N[C@@H](CO)C(=O)N[C@@H](C)C(=O)N[C@@H](C)C(N)=O)NC(=O)[C@H](CC2CCC2)NC(=O)[C@H](CCC(N)=O)NC(=O)[C@H](C)NC(=O)[C@H](Cc2c[nH]c3ccccc23)NC(=O)[C@H](Cc2ccc(O)cc2)NC(=O)[C@H](CCC(=O)O)NC1=O [MP-169] | 227 | 0.253 | > 50 | 61.5 (≈ 120 µg/mL) | 3.06 |  |  |  |  |  |  |  |  |  |  |
| CC(=O)N[C@@H](CCCCN=[N+]=[N-])C(=O)NCCC(=O)N[C@@H](CC(C)C)C(=O)N[C@H](C(=O)N[C@@H](Cc1ccccc1)C(=O)N[C@]1(C)CCCCCCC=CCCC[C@@](C)(C(=O)N[C@@H](CO)C(=O)N[C@@H](C)C(=O)N[C@@H](C)C(N)=O)NC(=O)[C@H](CC2CCC2)NC(=O)[C@H](CCC(N)=O)NC(=O)C(C)(C)NC(=O)[C@H](Cc2c[nH]c3ccccc23)NC(=O)[C@H](Cc2ccc(O)cc2)NC(=O)[C@H](CCC(=O)O)NC1=O)[C@@H](C)O [MP-170] | 225 | 0.549 | > 50 | 92.5 (≈ 184 µg/mL) | 2.85 |  |  |  |  |  |  |  |  |  |  |
| CC(=O)N[C@@H](CCCCN=[N+]=[N-])C(=O)NCCC(=O)N[C@@H](CC(C)C)C(=O)N[C@H](C(=O)N[C@@H](Cc1ccccc1)C(=O)N[C@]1(C)CCCCCCC=CCCC[C@@](C)(C(=O)N[C@@H](CO)C(=O)N[C@@H](C)C(=O)N[C@@H](C)C(N)=O)NC(=O)[C@H](CC2CCC2)NC(=O)C(C)(C)NC(=O)[C@H](C)NC(=O)[C@H](Cc2c[nH]c3ccccc23)NC(=O)[C@H](Cc2ccc(O)cc2)NC(=O)[C@H](CCC(=O)O)NC1=O)[C@@H](C)O [MP-171] | 222 | 0.195 | > 50 | 34 (≈ 65.5 µg/mL) | 3 |  |  |  |  |  |  |  |  |  |  |
| CC(=O)N[C@@H](CCCCN=[N+]=[N-])C(=O)NCCC(=O)N[C@@H](CC(C)C)C(=O)N[C@H](C(=O)N[C@@H](Cc1ccccc1)C(=O)N[C@]1(C)CCCCCCC=CCCC[C@@](C)(C(=O)NC(C)(C)C(=O)N[C@@H](C)C(=O)N[C@@H](C)C(N)=O)NC(=O)[C@H](CC2CCC2)NC(=O)[C@H](CCC(N)=O)NC(=O)[C@H](C)NC(=O)[C@H](Cc2c[nH]c3ccccc23)NC(=O)[C@H](Cc2ccc(O)cc2)NC(=O)[C@H](CCC(=O)O)NC1=O)[C@@H](C)O [MP-172] | 225 | 0.123 |  | 140 (≈ 276 µg/mL) | 3.17 |  |  |  |  |  |  |  |  |  |  |
| CC(=O)N[C@@H](CCCCN=[N+]=[N-])C(=O)NCCC(=O)N[C@@H](CC(C)C)C(=O)N[C@H](C(=O)N[C@@H](Cc1ccccc1)C(=O)N[C@]1(C)CCCCCCC=CCCC[C@@](C)(C(=O)N[C@@H](CO)C(=O)N[C@@H](C)C(=O)N[C@@H](C)C(N)=O)NC(=O)[C@H](CC2CCC2)NC(=O)[C@H](CCC(N)=O)NC(=O)[C@H](CCC(=O)O)NC(=O)[C@H](Cc2c[nH]c3ccccc23)NC(=O)[C@H](Cc2ccc(O)cc2)NC(=O)[C@H](CCC(=O)O)NC1=O)[C@@H](C)O [MP-180] | 235 | 0.732 | > 50 | 93 (≈ 189 µg/mL) | 2.38 |  |  |  |  |  |  |  |  |  |  |
| CC(=O)N[C@@H](CCCCN=[N+]=[N-])C(=O)NCCC(=O)N(C)[C@@H](CC(C)C)C(=O)N[C@H](C(=O)N[C@@H](Cc1ccccc1)C(=O)N[C@]1(C)CCCCCCC=CCCC[C@@](C)(C(=O)N[C@@H](CO)C(=O)N[C@@H](C)C(=O)N[C@@H](C)C(N)=O)NC(=O)[C@H](CC2CCC2)NC(=O)[C@H](CCC(N)=O)NC(=O)[C@H](C)NC(=O)[C@H](Cc2c[nH]c3ccccc23)NC(=O)[C@H](Cc2ccc(O)cc2)NC(=O)[C@H](CCC(=O)O)NC1=O)[C@@H](C)O [MP-189] | 226 | 0.865 | > 50 | 122 (≈ 242 µg/mL) | 3.04 |  |  |  |  |  |  |  |  |  |  |
| CC(=O)N[C@@H](CC(C)C)C(=O)N[C@H](C(=O)N[C@@H](Cc1ccccc1)C(=O)N[C@]1(C)CCCCCCC=CCCC[C@@](C)(C(=O)N[C@@H](CO)C(=O)N[C@@H](C)C(=O)N[C@@H](C)C(N)=O)NC(=O)[C@H](CC2CCC2)NC(=O)[C@H](CC(C)C)NC(=O)[C@H](CCC(N)=O)NC(=O)[C@H](Cc2c[nH]c3ccccc23)NC(=O)[C@H](Cc2ccc(O)cc2)NC(=O)[C@H](CCCNC(=N)N)NC1=O)[C@@H](C)O [MP-193] (Ac-LTF[R8]RYWQL[Cba][S5]SAA-NH2; staple 4-11) | 207 |  | > 50 | 2 (≈ 3.63 µg/mL) | 3.26 | 58.33 |  |  |  |  |  |  |  |  |  |
| CC(=O)N[C@@H](CC(C)C)C(=O)N[C@H](C(=O)N[C@@H](Cc1ccccc1)C(=O)N[C@]1(C)CCCCCCC=CCCC[C@@](C)(C(=O)N[C@@H](CO)C(=O)N[C@@H](C)C(=O)N[C@@H](C)C(N)=O)NC(=O)[C@H](CC2CCC2)NC(=O)[C@H](CC(C)C)NC(=O)[C@H](CCCNC(=N)N)NC(=O)[C@H](Cc2c[nH]c3ccccc23)NC(=O)[C@H](Cc2ccc(O)cc2)NC(=O)[C@H](CCC(=O)O)NC1=O)[C@@H](C)O [MP-194] (Ac-LTF[R8]EYWRL[Cba][S5]SAA-NH2; staple 4-11) | 210 |  | > 50 |  | 2.87 | -1.06 | Poorly Behaved |  |  |  |  |  |  |  |  |
| CC(=O)N[C@@H](CC(C)C)C(=O)N[C@@H](Cc1c[nH]cn1)C(=O)N[C@@H](Cc1ccccc1)C(=O)N[C@]1(C)CCCCCCC=CCCC[C@@](C)(C(=O)N[C@@H](CO)C(=O)N[C@@H](C)C(=O)N[C@@H](C)C(N)=O)NC(=O)[C@H](CC2CCC2)NC(=O)[C@H](CC(C)C)NC(=O)[C@H](CCC(N)=O)NC(=O)[C@H](Cc2c[nH]c3ccccc23)NC(=O)[C@H](Cc2ccc(O)cc2)NC(=O)[C@H](CCC(=O)O)NC1=O [MP-198, ATSP-7041 (T2H)] (Ac-LHF[R8]EYWQL[Cba][S5]SAA-NH2; staple 4-11) | 209 |  |  | 25 (≈ 45.6 µg/mL) | 2.81 |  |  | 2.825 | -3.86 | > 50 |  |  |  |  |  |
| CC(=O)N[C@@H](CC(C)C)C(=O)N[C@H](C(=O)N[C@@H](Cc1ccccc1)C(=O)N[C@]1(C)CCCCCCC=CCCC[C@@](C)(C(=O)N[C@@H](CO)C(=O)N[C@@H](C)C(=O)N[C@@H](C)C(N)=O)NC(=O)[C@H](CC2CCC2)NC(=O)[C@H](CC(C)C)NC(=O)[C@H](CCC(N)=O)NC(=O)[C@H](Cc2c[nH]c3ccccc23)NC(=O)[C@H](Cc2ccc(O)cc2)NC(=O)[C@H](Cc2c[nH]cn2)NC1=O)[C@@H](C)O [MP-199, ATSP-7041 (E5H)] (Ac-LTF[R8]HYWQL[Cba][S5]SAA-NH2; staple 4-11) | 201 |  |  | 5 (≈ 8.98 µg/mL) | 3.25 |  |  | 4.035 | 24.3 | > 50 |  |  |  |  |  |
| CC(=O)N[C@@H](CC(C)C)C(=O)N[C@H](C(=O)N[C@@H](Cc1ccccc1)C(=O)N[C@]1(C)CCCCCCC=CCCC[C@@](C)(C(=O)N[C@@H](Cc2c[nH]cn2)C(=O)N[C@@H](C)C(=O)N[C@@H](C)C(N)=O)NC(=O)[C@H](CC2CCC2)NC(=O)[C@H](CC(C)C)NC(=O)[C@H](CCC(N)=O)NC(=O)[C@H](Cc2c[nH]c3ccccc23)NC(=O)[C@H](Cc2ccc(O)cc2)NC(=O)[C@H](CCC(=O)O)NC1=O)[C@@H](C)O [MP-201, ATSP-7041 (S12H)] (Ac-LTF[R8]EYWQL[Cba][S5]HAA-NH2; staple 4-11) | 218 |  |  | 5 (≈ 9.19 µg/mL) | 2.64 |  |  | 10.92 | 6.91 | > 50 |  |  |  |  |  |
| CC(=O)N[C@@H](CCCCN=[N+]=[N-])C(=O)NCCC(=O)N[C@@H](CC(C)C)C(=O)N[C@H](C(=O)N[C@@H](Cc1ccccc1)C(=O)N[C@]1(C)CCCCCCC=CCCC[C@@](C)(C(=O)N[C@@H](CO)C(=O)N[C@@H](C)C(=O)N[C@@H](C)C(N)=O)NC(=O)[C@H](CC2CCC2)NC(=O)[C@H](C)NC(=O)[C@H](C)NC(=O)[C@H](Cc2c[nH]c3ccccc23)NC(=O)[C@H](Cc2ccc(O)cc2)NC(=O)[C@H](C)NC1=O)[C@@H](C)O [MP-964, AZIDE-ATSP-7041 (E5A,Q9A)] (Ac-[Lys(N3)][βAla]LTF[R8]AYWAA[Cba][S5]SAA-NH2; staple 6-13) | 204 |  |  |  | 3.77 |  | Poorly Behaved | 6.293 | 4.09 | > 50 | 2.881 | > 50 | P.B. |  |  |
| CC(=O)N[C@@H](CCCCN=[N+]=[N-])C(=O)NCCC(=O)N[C@@H](CC(C)C)C(=O)N[C@H](C(=O)N[C@@H](Cc1ccccc1)C(=O)N[C@]1(C)CCCCCCC=CCCC[C@@](C)(C(=O)N[C@@H](C)C(=O)N[C@@H](C)C(=O)N[C@@H](C)C(N)=O)NC(=O)[C@H](CC2CCC2)NC(=O)[C@H](CCC(N)=O)NC(=O)[C@H](C)NC(=O)[C@H](Cc2c[nH]c3ccccc23)NC(=O)[C@H](Cc2ccc(O)cc2)NC(=O)[C@H](CCC(=O)O)NC1=O)[C@@H](C)O [MP-8956, AZIDE-ATSP-7041 (S12A)] (Ac-[Lys(N3)][βAla]LTF[R8]EYWAQ[Cba][S5]AAA-NH2; staple 6-13) | 217 |  |  | 108 (≈ 211 µg/mL) |  |  |  | 18.05 |  | > 50 | 3.25 | > 50 |  | 0.411 | 108 (≈ 211 µg/mL) |
